# Results as given in US20180303830A1, “CANCERS EXPRESSING CCR5 AND METHODS OF TREATMENT OF SAME” (THOMAS JEFFERSON UNIVERSITY, priority 2015, published 2018).
# Experiments:
# SUM159 cells [1] = assay: Phospho-γH2AX Western-blot of doxorubicin induced DNA damage in SUM159 cells; assay type: cell-based, human; conditions: for doxorubicin induced phospho-γH2AX (DNA damage): 100 μM, SUM159 cells, doxorubicin treatment; for effect on CCR5-mediated DNA repair (phospho-γH2AX western-blot and DNA repair reporter assay): breast cancer cells overexpressing CCR5, doxorubicin and γ-radiation induced DNA damage
# Description: The chemokine receptor CCR5 is normally expressed on the surface of immune cells and served as HIV co-receptor. […] Compared with CCR5− cells, the CCR5+ cells were enriched with DNA damage/repair gene signature. […] Based on the existing theory that the resistance of cancer cells to the chemotherapy and radiation therapy caused by the existence of cancer stem cells, the inhibition of CCR5 by CCR5 antagonists will sensitize the response of breast cancer cells to chemotherapy and radiation therapy, therefore increase the efficiency of DNA damage inducing chemotherapy treatment for CCR5 expressing cancers.
# FIG. 9. […] FIG. 9A The CCR5 stable-transfected and vector-control SUM159 cells were illuminated with 6.5 Gy of γ-radiation. The samples were collected at 0.5, 3 and 24 hours after y-radiation. The recruitment of phosphor-γH2AX and the reduction of abundance were faster in CCR5-transfected cells than vector-control cells. FIG. 9B The CCR5 stable-transfected and vector-control SUM159 cells were treated with doxorubicin. […] FIG. 9C CCR5 antagonist increased DNA damage in SUM159 cells. SUM159 cells treated with CCR5 antagonist, Maraviroc and Vicriviroc, both at 100 μM. DNA damage was induced by doxorubicin treatment. There are more doxorubicin induced phospho-γH2AX in Marviroc and Vicriviroc treated groups.
# FC-IBC-02 cells = assay: Boyden chamber migration and invasion assay in FC-IBC-02 cells; assay type: cell-based, human; conditions: 100 μM, 48 hrs, compared to control; for invasion of FC-IBC-02 cells: matrigel-coated membrane; for migration of FC-IBC-02 cells: noncoated membrane
# Method: The effects of CCR5 antagonists (Maraviroc and Vicriviroc) on cell migration and invasion in vitro were examined using matrigel-coated Boyden chamber assay in FC-IBC-02 cells, which are triple-negative, basal-like, cancer stem cell phenotype, and rapidly developed primary tumors and metastasis in vivo. Cells were treated by Maraviroc and Vicriviroc at 100 μM and support the conclusion that CCR5 is highly expressed in basal-like human IBC cells.
# In FIG. 3, CCR5 antagonists Maraviroc and Vicriviroc suppress the migration and invasion of FC-IBC-02 cells. FIGS. 3A and 3B depict control and CCR5 antagonists treated cells at equal number were seeded onto the noncoated membrane (migration) and matrigel-coated membrane (invasion). After incubating 48 hrs. the cells crossed the membrane were stained with 0.05% crystal violet. FIGS. 3C and 3D, quantitation of 3A and 3B compared to controls was indicated.
# [2] = test system: basal-like breast cancer model; assay: In vivo metastasis in a basal-like breast cancer model; parameters: species or system mice
# Description: Chemokine CCL5 and its receptor CCR5 play a significant role in cancer progression and metastasis. Metastasis is the primary cause of death in patients with breast cancer. No effective treatments currently exist that are directed specifically to the metastatic process. There is evidence that the CCR5 receptor is expressed in a subset of human breast cancers. Importantly, embodiments disclosed herein support that CCR5 inhibitors previously developed and FDA approved for treatment of HIV, can effectively block breast cancer metastasis in preclinical models, thereby providing for an effective treatment of said metastatic breast cancers. The repurposing of drugs for alternative use in cancer metastasis, drugs that were previously approved by the FDA, may provide a more rapid solution for this deadly disease. Indeed, CCR5 inhibition by the FDA approved CCR5 antagonists Maraviroc and Vicriviroc reduced in vivo metastasis in a basal-like breast cancer model.
# Indeed, in studies described herein, CCR5 is sufficient to induce invasiveness of breast cancer cells into matrigel, and metastasis to the lungs of mice. Accordingly, two distinct CCR5 inhibitors, maraviroc and vicriviroc, blocked CCR5 signaling and thereby block migration, invasion and metastasis in mice. […] The dose of CCR5 inhibitor used in these mouse models was the same as the dose used in patients for HIV.
# SUM159 cells [3] = assay: Lung metastasis of SUM159 cells in SCID mice, photon flux (IVIS); assay type: in vivo
# Description: The CCR5 antagonist, Maraviroc, was previously approved by the US Food and Drug Administration (FDA) for the use in treatment-nave adult […] with CCR5-trophic HIV. In order to determine the role endogenous CCR5 within SUM159 cells in lung metastasis, cells were introduced into SCID immune deficient mice, and tumor volume characterized using the IVIS system. […] (p<0.0001).
# FIG. 7. Endogenous CCR5 promotes lung metastases in mice. FIG. 7A Representative timed photon emission of mice injected with SUM159 cells treated with either control or Maraviroc (at 14 mg/kg mouse body, time as shown in weeks). FIG. 7B Mean±SEM of photon flux for 6 animals in control group and 7 animals in maraviroc treatment group shown in 5 weeks. Maraviroc treatment reduces mean lung tumor volume by 98% which detected by photon flux ((3.01±1.16)×10^7 vs (1.05±0.44)×10^8, p=0.063 with Mann-Whitney Test).
SMILES,doxorubicin induced phospho-γH2AX (DNA damage) (SUM159 cells [1]),effect on CCR5-mediated DNA repair (phospho-γH2AX western-blot and DNA repair reporter assay) (SUM159 cells [1]),invasion of FC-IBC-02 cells (FC-IBC-02 cells),migration of FC-IBC-02 cells (FC-IBC-02 cells),in vivo metastasis [2],"photon flux, Mean±SEM (SUM159 cells [3]; 14 mg/kg, 5 weeks, 7 animals, p=0.063 Mann-Whitney vs control)","reduction of mean lung tumor volume detected by photon flux (SUM159 cells [3]; 14 mg/kg, 5 weeks, vs control)","increase in breast cancer lung metastases (photon flux) in the control group compared to the treated group (SUM159 cells [3]; SUM159 cells in SCID mice, administered orally)","percentage of mice with detectable lung metastases (SUM159 cells [3]; SUM159 cells in SCID mice, administered orally, p<0.0001)"
"Cc1nnc(C(C)C)n1[C@@H]1C[C@H]2CC[C@@H](C1)N2CC[C@H](NC(=O)C1CCC(F)(F)CC1)c1ccccc1 [Maraviroc, 4,4-difluoro-N-{(1S)-3-[3-(3-isopropyl-5-methyl-4H-1,2,4-triazol-4-yl)-8-azabicyclo[3.2.1]oct-8-yl]-1-phenylpropyl}cyclohexanecarboxamide]",more,abolished these effects,suppress,suppress,reduced,(3.01±1.16)×10^7,98%,15 fold,significantly reduced
"COCC(c1ccc(C(F)(F)F)cc1)N1CCN(C2(C)CCN(C(=O)c3c(C)ncnc3C)CC2)C[C@@H]1C (stereo partly drawn) [Vicriviroc, 5-({4-[(3S)-4-{2-methoxy-1-[4-(trifluoromethyl)phenyl]ethyl}-3-methylpiperazin-1-yl]-4-methylpiperidin-1-yl}carbonyl)-4,6-dimethylpyrimidine]",more,abolished these effects,suppress,suppress,reduced,–,–,–,–
